Results as given in patent US11814652B2, “Pluripotent stem cell differentiation-promoting agent” (Oriental Yeast Co., Ltd., priority 2018, dated 2023).

What was measured:
iPS cells 201B7 strain [1] = experiment: Cell number in ectodermal differentiation-induction after undifferentiated culture with β-NMN (Example 7); format: cell-based, human; conditions: β-NMN 0.25 or 1 mM in culture medium for iPS cells before ectodermal differentiation-induction; 7th or 9th day after seeding; versus no β-NMN
Method: The effects of culturing in the presence of β-NMN before induction of differentiation on the ectodermal differentiation-induction of iPS cells was examined. As the iPS cells, the 201B7 strain was used. The iPS cells were cultured in a culture dish in the same manner as in Example 5, and when the confluent reached 70 to 80%, the iPS cells were detached from the culture dish and collected. The collected iPS cells were seeded at 3×10^5 cells/well in a 24-well plate coated with Matrigel (manufactured by Corning Incorporated) according to the manufacturer's protocol. The cells in the 24-well plate were cultured for 1 day in a culture medium prepared by removing β-NMN from the culture medium when culturing in the culture dish and adjusting to have a final concentration of Rock inhibitor of 10 μM. From the 1st day after seeding, the medium was replaced every day with a culture medium for ectodermal differentiation-induction of “STEMdiff Trilineage Differentiation kit” (manufactured by STEMCELL Technologies). The cells of the 7th or 9th day after seeding were sampled and the cell numbers were counted. The time-dependent change in cell number of each sample is shown in FIG. 12(A), and the cell number of each sample on the 9th day after seeding is shown in FIG. 12(B). […]

[2] = system: human iPS cell strain 201B7; experiment: RT-PCR of marker expression in iPS cells cultured in E6 differentiation-inducing medium with β-NMN (Example 1); format: cell-based; conditions: 3rd and 7th day after seeding, β-NMN 0.25 or 1 mM in E6 medium, compared to cells cultured in the absence of β-NMN
Method: The effect of β-NMN on the differentiation of three germ layers of the iPS cells was examined. As the iPS cells, the human iPS cell strain 201B7 was used. A U-bottom shape 96-well plate “Nunclon Sphera 96 U-well plate” (manufactured by Thermo Fisher Scientific) was seeded with iPS cells at 10,000 cells/well, and cultured in an E6 culture medium (manufactured by Gibco) as a differentiation-inducing culture medium adjusted to have a final concentration of β-NMN of 0, 0.25 or 1 mM, and a final concentration of Rock inhibitor of 10 μM for 1 day. The Rock inhibitor was added to suppress Rho-dependent apoptosis. On the 1st and 5th days after seeding, the culture medium was replaced with a culture medium obtained by removing the Rock inhibitor from the culture medium at the time of seeding. Cells on the 3rd and 7th days after seeding were sampled and subjected to RT-PCR to investigate the expression levels of undifferentiated markers (Nanog, Sox2, Oct3/4, Lin28a, Klf4), endoderm markers (Sox17, AFP), mesoderm markers (MSX1, Brachyury) and ectodermal markers (PAX6). […] The expression level of each marker was evaluated by PCR using the obtained cDNA. […]

iPS cells 201B7 strain [3] = experiment: Flow cytometry of Brachyury/CD56 mesodermal markers, differentiation-induction in medium with β-NMN (Example 3); format: cell-based, human
Method: The effects of β-NMN on the mesodermal differentiation-induction of iPS cells were examined. The 201B7 strain was used as the iPS cells. The iPS cells were seeded in a 24-well plate coated with Matrigel (manufactured by Corning Incorporated) according to the manufacturer's protocol at 1×10^5 cells/well. The cells in the 24-well plate were cultured in a culture medium for iPS cells adjusted to have a final concentration of Rock inhibitor of 10 μM for 1 day. From the 1st day after seeding, the culture medium was replaced with a culture medium prepared by adjusting a mesoderm differentiation-inducing culture medium of “STEMdiff Trilineage Differentiation kit” (manufactured by STEMCELL Technologies) to have a final concentration of β-NMN of 0, 0.1, 0.25, or 1 mM for 1 day. […] Then, the cells were stained with a fluorescence-labeled anti-Brachyury antibody (manufactured by Merck, clone 3E4.2) and a fluorescence-labeled anti-CD56 antibody (manufactured by Biolegend, clone HCD56). After washing the stained cells, a flow cytometer “FACS caliber” (manufactured by Becton, Dickinson and Company) was used to analyze the fluorescence intensity of the anti-Brachyury antibody and the fluorescence intensity of the anti-CD56 antibody in each sample. […]

iPS cells 201B7 strain [4] = experiment: Cell number during ectodermal differentiation-induction in medium with β-NMN (Example 2); format: cell-based, human; conditions: ectoderm differentiation-inducing medium containing β-NMN 0.1, 0.25 or 1 mM; 2nd, 4th, 7th day after seeding; versus medium not containing β-NMN
Method: The effect of β-NMN on the ectodermal differentiation-induction of the iPS cells was examined. The 201B7 strain was used as the iPS cells. The iPS cells were seeded in a 12-well plate coated with Matrigel (manufactured by Corning Incorporated) according to the manufacturer's protocol at 8×10^5 cells/well. The cells in the 12-well plate were cultured in a culture medium prepared by adjusting an ectodermal differentiation-inducing culture medium of “STEMdiff Trilineage Differentiation kit” (manufactured by STEMCELL Technologies) to have a final concentration of β-NMN of 0, 0.1, 0.25, or 1 mM, and a final concentration of Rock inhibitor of 10 μM for 1 day. From the 1st day after seeding, the medium was replaced every day with a culture medium obtained by removing the Rock inhibitor from the culture medium at the time of seeding. Cells of the 2nd, 4th or 7th day after seeding were sampled and the cell numbers were counted. The time-dependent change in cell number of each sample is shown in FIG. 2(A), and the cell numbers of the 7th day after seeding are shown in FIG. 2(B). As a result, the number of cells cultured in the ectoderm differentiation-inducing culture medium containing β-NMN was larger than the number of cells cultured in the medium not containing β-NMN.

NC(=O)c1ccc[n+]([C@@H]2O[C@H](COP(=O)([O-])O)[C@@H](O)[C@H]2O)c1 [β-NMN, β-nicotinamide mononucleotide]
number of the cells (iPS cells 201B7 strain [1]): larger
expression level of each undifferentiated marker (Nanog, Sox2, Oct3/4, Lin28a, Klf4) [2]: decreased
expression level of the differentiated marker (Sox17, AFP, MSX1, Brachyury, PAX6) [2]: increased
ratio of Brachyury-positive CD56-positive cells (iPS cells 201B7 strain [3]; mesodermal differentiation-inducing medium with β-NMN 0.1, 0.25 or 1 mM, 5th or 7th day, versus absence of β-NMN): no clear difference
ratio of Brachyury-positive CD56-positive cells (iPS cells 201B7 strain [3]; β-NMN added at 1 mM, versus culturing without β-NMN): obviously lower
number of cells (iPS cells 201B7 strain [4]): larger
